These results are taken from patent US20250214992A1, “HIGH-PURITY COMPOUND PRODUCTION METHOD AND PURIFICATION METHOD” (SANTEN PHARMACEUTICAL CO., LTD., priority 2022, published 2025).

SMILES strings stand for the structures.

The nature of the series: Ames test. Type of series: cell-based. As to conditions: impurity contained in the prepared AFDX0250; found in the development stage of a pharmaceutical composition. (In general: The Ames test uses bacterial strains that need an amino acid and regain growth without it when mutated back.)

As for `O=C1Nc2cccnc2N(C(=O)CCl)c2ccccc21` [Compound 1, 11-(2-chloroacetyl)-5,11-dihydro-6H-pyrido[2,3-b][1,4]benzodiazepin-6-one], the Ames test result is “positive”.
